In doi:10.1101/2023.04.18.537371v1 (bioRxiv, 2023):
Peptide text beside a SMILES is read from it.

How the values were obtained:
[1] = In vitro protein binding, rapid equilibrium dialysis; assay type: in vitro ADME; details: human, plasma
[2] = In vitro blood to plasma partitioning; assay type: in vitro ADME, rat; details: for Mean erythrocyte to plasma ratio KE/P: rat whole blood, 37°C, 60 min
Plasma stability = assay type: in vitro ADME, beagle dog
CD-1 mouse hepatocytes = test: Hepatocyte stability; assay type: in vitro ADME; details: 1.00 μM
beagle dog hepatocytes = test: Hepatocyte stability; assay type: in vitro ADME; details: 1.00 μM
rat hepatocytes = test: Metabolite identification in hepatocytes; assay type: in vitro ADME; details: cryopreserved rat hepatocytes, FC-12738 10 μM, 37 °C, 240 min, LC-UV-MS
[3] = Excretion study in SD rats following single subcutaneous administration; assay type: in vivo, SD rat; details: for Accumulative Dose Recovery: 0 h, n=3, mean
CYP2B6 = target: T1, CYP2B6 (Homo sapiens, UniProt P20813); test: biochemical; assay type: in vitro ADME
T1 sequence (P20813 1-491): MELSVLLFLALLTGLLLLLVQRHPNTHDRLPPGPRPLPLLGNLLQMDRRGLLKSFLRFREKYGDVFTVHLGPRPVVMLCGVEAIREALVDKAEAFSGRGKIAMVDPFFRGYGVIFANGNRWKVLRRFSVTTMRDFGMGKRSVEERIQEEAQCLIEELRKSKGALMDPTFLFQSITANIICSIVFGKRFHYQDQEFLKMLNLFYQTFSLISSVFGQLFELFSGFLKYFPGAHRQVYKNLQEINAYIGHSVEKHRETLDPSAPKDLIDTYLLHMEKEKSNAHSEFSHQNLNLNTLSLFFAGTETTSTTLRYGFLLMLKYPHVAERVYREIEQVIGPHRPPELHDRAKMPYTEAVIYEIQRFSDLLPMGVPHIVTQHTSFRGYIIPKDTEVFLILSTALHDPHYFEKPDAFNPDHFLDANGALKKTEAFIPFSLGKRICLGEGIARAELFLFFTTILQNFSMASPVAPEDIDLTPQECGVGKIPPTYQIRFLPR

CYP2C8 = target: T2, CYP2C8 (Homo sapiens, UniProt P10632); test: CYP450 inhibition assay; assay type: in vitro ADME
T2 sequence (P10632 1-490): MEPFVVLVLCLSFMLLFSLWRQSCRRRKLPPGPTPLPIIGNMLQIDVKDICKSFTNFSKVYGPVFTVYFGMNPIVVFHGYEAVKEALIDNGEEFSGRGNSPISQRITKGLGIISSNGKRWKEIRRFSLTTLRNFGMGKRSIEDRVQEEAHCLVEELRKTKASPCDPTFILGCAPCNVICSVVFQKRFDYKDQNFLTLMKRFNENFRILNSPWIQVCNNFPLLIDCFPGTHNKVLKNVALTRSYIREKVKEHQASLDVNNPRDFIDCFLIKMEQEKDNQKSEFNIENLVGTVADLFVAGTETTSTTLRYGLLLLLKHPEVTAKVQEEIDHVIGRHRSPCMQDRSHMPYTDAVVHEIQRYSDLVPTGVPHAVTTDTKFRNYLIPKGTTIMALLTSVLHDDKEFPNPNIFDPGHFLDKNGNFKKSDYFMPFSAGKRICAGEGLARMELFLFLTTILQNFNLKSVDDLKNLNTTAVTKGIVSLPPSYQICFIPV

CYP2C9 = CYP2C9 (Homo sapiens, UniProt P11712); test: CYP time-dependent inhibition assay; assay type: in vitro ADME
CYP3A = test: CYP time-dependent inhibition assay; assay type: in vitro ADME, human
CYP1A2 = assay type: in vitro ADME; details: cryopreserved human hepatocytes, three donors, 0.100 to 15.0 μM, 48 h, 37°C
CYP3A4 = test: CYP induction assay in human hepatocytes; assay type: in vitro ADME; details: cryopreserved human hepatocytes, three donors, 0.100 to 15.0 μM, 48 h, 37°C
[4] = male, SD, rat, urine, sc, 10 mg/kg
[5] = male, Sprague-Dawley, rat, bile, sc, 10 mg/kg
[6] = male, Sprague-Dawley, rat, feces, sc, 10 mg/kg
[7] = male, Sprague-Dawley, rat, urine + feces, sc, 10 mg/kg
[8] = male, Sprague-Dawley, rat, urine, sc, 10 mg/kg

CYP2C9, sequence (P11712 whole entry): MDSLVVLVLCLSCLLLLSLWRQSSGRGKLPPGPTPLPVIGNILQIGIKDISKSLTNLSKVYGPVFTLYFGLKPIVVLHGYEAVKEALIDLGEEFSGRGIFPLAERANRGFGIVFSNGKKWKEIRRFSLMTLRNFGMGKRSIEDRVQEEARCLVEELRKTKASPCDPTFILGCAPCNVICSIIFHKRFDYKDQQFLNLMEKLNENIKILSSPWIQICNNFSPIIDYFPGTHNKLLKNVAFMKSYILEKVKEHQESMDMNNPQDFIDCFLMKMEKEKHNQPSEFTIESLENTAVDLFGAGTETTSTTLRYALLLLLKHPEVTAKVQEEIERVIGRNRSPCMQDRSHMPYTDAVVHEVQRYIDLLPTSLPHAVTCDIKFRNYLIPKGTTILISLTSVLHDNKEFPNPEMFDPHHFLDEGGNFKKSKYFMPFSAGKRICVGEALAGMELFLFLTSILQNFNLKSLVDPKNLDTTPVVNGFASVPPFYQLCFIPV

## CC(C)[C@@H](NC(=O)[C@H](N)Cc1ccc(O)cc1)C(=O)N[C@H](CC(=O)O)C(=O)N[C@H](CCCCN)C(=O)N[C@H](CCCNC(=N)N)C(=O)O [FC-12738, (D-Tyr)-(D-Val)-(D-Asp)-(D-Lys)-(D-Arg)] (HELM PEPTIDE1{[dY].[dV].[dD].[dK].[dR]}$$$$V2.0)
[1]
  fraction unbound at 6 h, 0.2 µM: 0.428
  fraction unbound at 6 h, 2 µM: 0.47
  fraction unbound at 6 h, 10 µM: 0.673
[2]; 0.200 μM
  Mean erythrocyte to plasma ratio KE/P: < 0.21
[2]; 2.00 μM
  Mean erythrocyte to plasma ratio KE/P: < 0.11
[2]; 10.0 μM
  Mean erythrocyte to plasma ratio KE/P: < 0.03
[2]; rat, whole blood
  tissue to tissue ratio at 1 h, 0.2 µM: 0.48
  tissue to tissue ratio at 1 h, 2 µM: 0.5
  tissue to tissue ratio at 1 h, 10 µM: 0.47
Plasma stability; beagle dog plasma, 2.00 μM, 37.0 °C, up to 120 min
  half-life: > 6.212 h
Plasma stability; beagle, dog, plasma
  remaining at 10 min, 2 μM: 106%
  remaining at 0.5 h, 2 μM: 105%
  remaining at 1 h, 2 μM: 106%
  remaining at 2 h, 2 μM: 101%
CD-1 mouse hepatocytes; cryopreserved CD-1 mouse hepatocytes, 37.0°C, 120 min
  intrinsic clearance CLint(hep): < 1.9 μL/min/10^6 cells
CD-1 mouse hepatocytes; cryopreserved CD-1 mouse hepatocytes, 37.0°C, 120 min, LC-MS/MS
  half-life: > 6.212 h
CD-1 mouse hepatocytes; scaled from CD-1 mouse hepatocytes
  hepatic clearance CLint(liver): < 1.33 L/h/kg
Beagle dog hepatocytes; cryopreserved beagle dog hepatocytes, 37.0°C, 120 min
  intrinsic clearance CLint(hep): < 1.9 μL/min/10^6 cells
Beagle dog hepatocytes; cryopreserved beagle dog hepatocytes, 37.0°C, 120 min, LC-MS/MS
  half-life: > 6.212 h
Beagle dog hepatocytes; scaled from beagle dog hepatocytes
  hepatic clearance CLint(liver): < 0.768 L/h/kg
Rat hepatocytes
  Relative Abundance (UV%): 87.56%
[3]; bile, male bile-duct-cannulated SD rats, SC 10 mg/kg single
  Accumulative Dose Recovery: 0.00%
[3]; feces, male intact SD rats, SC 10 mg/kg single
  Accumulative Dose Recovery: 0.00%
[3]; male SD rats, SC 10 mg/kg single, excretion study
  Tolerability / adverse effects in-life: No adverse effect was observed
[3]; [4]
  dose excreted at 96 h: 86.4%
  dose excreted at 120 h: 86.6%
  dose excreted at 144 h: 86.7%
[3]; [5]
  dose excreted at 4 h: 0.284%
  dose excreted at 12 h: 0.314%
  dose excreted at 24 h: 0.324%
  dose excreted at 48 h: 0.331%
  dose excreted at 72 h: 0.336%
[3]; [6]
  dose excreted at 4 h: 0.00168%
  dose excreted at 8 h: 0.00239%
  dose excreted at 24 h: 1.74%
  dose excreted at 48 h: 2.08%
  dose excreted at 72 h: 2.14%
  dose excreted at 96 h: 2.16%
  dose excreted at 120 h: 2.18%
  dose excreted at 144 h: 2.19%
  dose excreted at 168 h: 2.19%
[3]; [7]
  dose excreted at 4 h: 56.2%
  dose excreted at 8 h: 78.2%
  dose excreted at 24 h: 85.8%
  dose excreted at 48 h: 88.2%
  dose excreted at 72 h: 88.5%
  dose excreted at 96 h: 88.6%
  dose excreted at 120 h: 88.7%
  dose excreted at 144 h: 88.9%
  dose excreted at 168 h: 88.9%
[3]; [8]
  dose excreted at 4 h: 56.2%
  dose excreted at 8 h: 78.2%
  dose excreted at 24 h: 84%
  dose excreted at 48 h: 86.1%
  dose excreted at 72 h: 86.4%
  dose excreted at 168 h: 86.7%
[3]; total (urine + feces), male intact SD rats, SC 10 mg/kg single
  Accumulative Dose Recovery: 0.00%
[3]; urine, male intact SD rats, SC 10 mg/kg single
  Accumulative Dose Recovery: 0.00%
CYP2B6
  IC50: > 100 µM
CYP2C8
  IC50: > 100 µM
CYP2C9
  IC50: > 100 µM
CYP2C9; cutoff IC50 shift >= 1.5-fold, 30 min pre-incubation ± NADPH
  Time-dependent inhibition of CYP2C9: no time-dependent inhibition
CYP3A; human, pooled human liver microsomes
  IC50 at 30 min: > 100 µM
CYP3A; midazolam and testosterone as substrates, cutoff IC50 shift >= 1.5-fold
  Time-dependent inhibition of CYP3A: no time-dependent inhibition
CYP1A2
  Induction of CYP1A2 (enzyme activity and gene expression): not considered as an inducer
CYP3A4
  Induction of CYP3A4 (enzyme activity and gene expression): not considered as an inducer
